Reference: patent US6096725A, “Methods of using αGal oligosaccharides as immune system targeting agents” (Neose Technologies, Inc., priority 1997, dated 2000)
Read-outs that look alike come from different tables or passages of the source.

Experiments:
[1] = tested on: hyperacute rejection (HAR) of porcine heart xenografted to the neck of a baboon; format: in vivo; settings: for Onset of IgG, IgM and complement (C3) deposition at the endothelial surface: immunofluorescence
Excerpt: Primate model for testing and application of αGal oligosaccharides and dosages thereof. Due to the many similarities between human and baboon immune systems (Neubauer et al., 1981, J. Immunogenetics, 8:433-442; Garver et al., 1980, Cytogenetics & Cell Genetics, 27:238-245; Brodsky et al., 1982, Immunogenetics, 155:151-166; Hammer, C., in Hardy, M. A. (ed.), Xenograft 25, 115-123 (Elsevier, N.Y., 1989); Stark, J. H., et al., Transplantation, 30 52(6):1072-1078 (December 1991); Hammer, C., in Cooper, D. K. C., et al. (eds.), Xenotransplantation, 429-438 (Springer-Verlag 1991)), and because of the large size of baboons, these animals are convenient experimental model recipients of pig organs. These non-human primates also express anti-pig antibodies, and reject pig organs hyperacutely (Lexer et al., 1986, J. Heart Transplant, 4:411-418; Ye, Y., Cooper, D. K. C., in Cooper, D. K. C., et al. (eds.), Xenotransplantation,389-393 (Springer-Verlag 1991); Cooper et al., 1991, J. Heart Transplant, 7:238-246, 1988; Platt et al., 1991, Transplantation, 52(2):214-220). A normal porcine heart was transplanted into the neck of a normal baboon. αGal pentasaccharide was infused (i.v.) to establish and maintain blood oligosaccharide levels predicted to inhibit HAR until infusate was exhausted (See Table 2). The ability of i.v. infused αGal pentasaccharide to block hyperacute rejection (HAR) of porcine heart xenografted to the neck of a baboon was determined and blood levels of αGal oligosaccharide, anti-αGal antibodies, and serum or plasma cytotoxicity toward pig kidney and mouse endothelial cells was monitored and correlated with the onset of HAR.
The heart was excised from the pig donor and transplanted in the neck of the baboon recipient using techniques essentially as described by Cooper et al., 1993, Transplantation, 56:769-777.
The two xenotransplant baboons were outfitted with an indwelling catheter to the femoral vein to infuse compound and a catheter to the femoral artery for blood sampling. Following the transplant procedure, but just prior to providing circulatory access to the xenograft, the oligosaccharide was administered by i.v. pump through the catheter in a 15 min loading dose, followed by continuous 4 hour infusion to achieve 2.5 mM blood concentration (as determined by calculations presented in Table 2). […] Blood specimens collected for plasma were immediately centrifuged and the plasma withdrawn and stored frozen at -20° C. Blood specimens collected for serum were clotted at 4° C. overnight and the withdrawn serum frozen at -20° C. The αGal pentasaccharide was prepared according to the enzymatic methods set forth in example 6.2 and stored as a dry, white, solid powder. The oligosaccharide was dissolved in 250 mL sterile infusion grade saline to a concentration of 0.154 g/mL, or 177 mM. Induction anesthesia was with ketamine hydrochloride 5 mg/kg/body weight in and 0.5 mg/kg of xylazine iv. Intravenous fluid of approximately 20 ml/kg body weight was given during the course of the operative procedure through either a peripheral or central vein. Atropine 0.5 mg/kg was given iv. The larynx was sprayed with 2% lidocaine. Endotracheal intubation was carried out. The endotracheal tube was taped to the maxilla. The pig or baboon was ventilated with a Harvard positive pressure ventilator. Anesthesia was maintained with nitrous oxide 2 L/min and oxygen 1 L/min and 0.2%-1.2% halothane, at a respiratory rate of approximately 10 to 20 breaths per minute depending on the size of the animal. Tidal volume (approximately 20-24 ml/kg) was also adjusted to suit the size of the animal, and the ventilatory pressure was adjusted to approximately […]. Blood gases were checked, and ventilation adjusted as necessary. Arterial pressure was monitored in the recipient baboon by intermittent automatic cuff recordings. […]

[2] = Human dose and half-life estimates extrapolated from baboon pharmacokinetics; settings: human patient of 70 Kg
Procedure: ^1 To achieve a steady state serum concentration for monovalent αGal pentasaccharide of 1 mM (i.e., 0.9 mg/mL) in a human patient of 70 Kg, it is estimated that a loading dose of 412 mg/Kg be administered in the form of a bolus or 15 minute infusion, followed by a continuous infusion of 30 g/h over a 14 day period (see Table 2 for further αGal trisaccharide and αGal pentasaccharide 2 infusion regimens).
The clearance is used to calculate the infusion rate needed to maintain a desired drug concentration. The half-life describes how quickly concentrations diminish with time. Mathematical formulations known in the art were applied to estimate the pharmacokinetic parameters of the αGal trisaccharide and αGal pentasaccharide. […] Compared to other drugs, the volumes of distribution of these oligosaccharides are low, less than the extravascular water volume (<400 mL/kg). The clearance is typical of compounds eliminated by GFR (glomerular filtration rate).

anti-αGal antibody = test: In vivo blood serum analysis: serum anti-αGal antibody neutralizing capacity in baboons; parameters: species or system baboon; settings: monovalent oligosaccharide
Excerpt: Pharmokinetics of αGal trisaccharides and αGal pentasaccharides in baboons. This example presents a study of the pharmokinetic profile and serum anti-αGal antibody neutralizing capacity in baboons of αGal trisaccharides and αGal pentasaccharides and previews the compounds' suitability for use in the prevention of hyperacute rejection of porcine organs xenotransplanted into baboons.
Three Baboons were outfitted with indwelling venous and arterial catheters to the femoral vessels, and held in place with the aid of a jacket. Oligosaccharides were administered through the catheter in a 15 minute continuous infusion.

## CC(=O)N[C@H]1[C@H](O[C@H]2[C@@H](O)[C@@H](CO)O[C@@H](O[C@H]3[C@H](O)[C@@H](O)C(O)O[C@@H]3CO)[C@@H]2O)O[C@H](CO)[C@@H](O[C@@H]2O[C@H](CO)[C@H](O)[C@H](O[C@H]3O[C@H](CO)[C@H](O)[C@H](O)[C@H]3O)[C@H]2O)[C@@H]1O (stereo partly shown) [αGal pentasaccharide, Galα1-3Galβ1-4GlcNAcβ1-3Galβ1-4Glc]
[1]; first baboon
  Onset of IgG, IgM and complement (C3) deposition at the endothelial surface: 1.5 h
[1]; in vivo
  Alteration in blood chemistry: increase in creatinine phosphokinase
  Hematology results: unremarkable
[1]; initial 3 hours of infusion, data not shown
  Xenograft histology: Essentially normal histology
[1]; second baboon
  Onset of IgG, IgM and complement (C3) deposition at the endothelial surface: 3 h
[1]; two baboons, four hour infusion, result in words
  Xenograft heart beat during infusion: an even beat was maintained for the duration of the four hour oligosaccharide infusion
[1]; two baboons, untreated pig hearts rejected in 5-10 minutes
  Time of xenograft excision after cessation of the 4 hour infusion: more than 1 hour
[2]; 1 mM steady state, over a 14 day period
  Estimated continuous infusion: 30 g/h
[2]; steady state serum concentration 1 mM (0.9 mg/mL)
  Estimated loading dose (bolus or 15 minute infusion): 412 mg/kg
anti-αGal antibody
  Minimal serum (circulating) concentration required to inhibit hyperacute rejection / be efficacious in vivo: ≥ 1 mM
